Data published in ChEMBL document CHEMBL1770083, “2-(4-Carbonylphenyl)benzoxazole inhibitors of CETP: attenuation of hERG binding and improved HDLc-raising efficacy” (Bioorg Med Chem Lett, 2011).

What was measured:
[1] = Lipophilicity, log D of the compound at pH 7.3 by HPLC; format: physicochemical; conditions: buffer
[2] = target: Voltage-gated inwardly rectifying potassium channel KCNH2 (Homo sapiens, UniProt Q12809); experiment: Displacement of [35S]MK499 from human ERG expressed in HEK cells; format: cell-based, HEK293
Chain of Voltage-gated inwardly rectifying potassium channel KCNH2 (Q12809 whole entry): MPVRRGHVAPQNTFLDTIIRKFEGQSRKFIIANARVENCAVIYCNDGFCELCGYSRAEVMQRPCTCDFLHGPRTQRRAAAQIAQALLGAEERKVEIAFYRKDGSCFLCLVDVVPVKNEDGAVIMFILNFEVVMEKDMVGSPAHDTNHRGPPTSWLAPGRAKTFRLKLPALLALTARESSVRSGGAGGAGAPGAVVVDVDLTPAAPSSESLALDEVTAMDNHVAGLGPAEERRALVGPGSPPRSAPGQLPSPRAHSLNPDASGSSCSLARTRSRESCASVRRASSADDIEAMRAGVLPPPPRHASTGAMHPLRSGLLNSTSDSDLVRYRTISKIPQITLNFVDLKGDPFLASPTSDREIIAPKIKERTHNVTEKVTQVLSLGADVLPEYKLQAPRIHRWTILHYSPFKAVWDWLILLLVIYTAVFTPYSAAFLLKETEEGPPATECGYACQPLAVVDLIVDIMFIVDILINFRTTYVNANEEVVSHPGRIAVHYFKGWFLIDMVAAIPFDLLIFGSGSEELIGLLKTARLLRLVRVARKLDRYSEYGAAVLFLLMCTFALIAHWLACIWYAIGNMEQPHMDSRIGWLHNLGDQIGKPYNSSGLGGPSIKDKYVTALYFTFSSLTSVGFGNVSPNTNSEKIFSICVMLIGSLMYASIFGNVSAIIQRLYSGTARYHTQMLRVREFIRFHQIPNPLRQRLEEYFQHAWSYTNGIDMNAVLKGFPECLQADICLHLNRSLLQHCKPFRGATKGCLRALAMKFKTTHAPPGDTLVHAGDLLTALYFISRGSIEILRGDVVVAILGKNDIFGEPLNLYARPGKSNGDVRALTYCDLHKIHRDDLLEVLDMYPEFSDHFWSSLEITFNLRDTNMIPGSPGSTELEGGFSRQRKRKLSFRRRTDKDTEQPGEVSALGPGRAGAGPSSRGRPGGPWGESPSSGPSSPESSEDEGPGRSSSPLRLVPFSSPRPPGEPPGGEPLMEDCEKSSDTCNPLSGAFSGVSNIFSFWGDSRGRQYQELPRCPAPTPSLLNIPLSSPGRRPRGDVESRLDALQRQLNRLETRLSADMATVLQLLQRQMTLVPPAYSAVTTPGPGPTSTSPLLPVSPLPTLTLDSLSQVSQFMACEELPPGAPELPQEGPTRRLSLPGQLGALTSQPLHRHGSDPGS

[3] = target: T1, Cholesteryl ester transfer protein (Homo sapiens, UniProt P11597); experiment: Inhibition of CETP
T1 sequence (P11597 whole entry): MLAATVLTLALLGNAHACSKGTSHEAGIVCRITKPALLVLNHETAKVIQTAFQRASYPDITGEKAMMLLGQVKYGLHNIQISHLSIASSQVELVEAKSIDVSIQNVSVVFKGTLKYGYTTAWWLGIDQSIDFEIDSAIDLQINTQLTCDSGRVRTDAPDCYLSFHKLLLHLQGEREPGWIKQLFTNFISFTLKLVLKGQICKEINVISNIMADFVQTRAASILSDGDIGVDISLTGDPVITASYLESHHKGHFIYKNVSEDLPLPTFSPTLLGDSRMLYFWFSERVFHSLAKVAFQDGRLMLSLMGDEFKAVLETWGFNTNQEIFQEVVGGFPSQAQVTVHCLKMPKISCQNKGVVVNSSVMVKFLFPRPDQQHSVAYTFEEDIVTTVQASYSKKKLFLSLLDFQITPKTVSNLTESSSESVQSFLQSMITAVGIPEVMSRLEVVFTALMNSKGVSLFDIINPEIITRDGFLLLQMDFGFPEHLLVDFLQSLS

Mus musculus = experiment: Increase of HDL cholesterol level in transgenic mouse model at 10 mg/kg; format: functional

| logD [1] | IC50 [3] | SMILES | IC50 [2] | Activity (Mus musculus) |
| --- | --- | --- | --- | --- |
| 4.8 |  | CC(C)c1cc(C#N)cc2nc(-c3ccc(C(=O)NCC4CN(c5ccc(-c6ccccc6C(N)=O)cn5)C(=O)O4)cc3)oc12 (racemic) | > 30000 nM |  |
|  | 46 nM | CC(C)c1cc(C#N)cc2nc(-c3ccc(C(=O)NC[C@@H]4CN(c5ccc(-c6ccccc6OC(F)(F)F)cn5)C(=O)O4)cc3)oc12 | > 30000 nM | 19 mg/dL |
| 6.6 | 124 nM | CC(C)Oc1ccc(F)cc1-c1ccc(N2CC(CNC(=O)c3ccc(-c4nc5cc(C#N)cc(C(C)C)c5o4)cc3)OC2=O)nc1 (racemic) | > 30000 nM |  |
|  | 22 nM | CC(C)c1cc(C#N)cc2nc(-c3ccc(C(=O)NC[C@]4(C)CN(c5ccc(-c6ccccc6OC(F)(F)F)cn5)C(=O)O4)cc3)oc12 | > 30000 nM | 33 mg/dL |
|  | 40 nM | CC(C)c1cc(C#N)cc2nc(-c3ccc(C(=O)NC[C@H]4CC[C@H](c5ccc(C(F)(F)F)cc5)CC4)cc3)oc12 | > 30000 nM |  |
| 6.9 | 171 nM | Cc1ccc(OC(C)C)c(-c2ccc(N3CC(CNC(=O)c4ccc(-c5nc6cc(C#N)cc(C(C)C)c6o5)cc4)OC3=O)nc2)c1 (racemic) |  |  |
|  | 145 nM | Cc1cccc([C@H]2CC[C@@H](CNC(=O)c3ccc(-c4nc5cc(C#N)cc(C(C)C)c5o4)cc3)CC2)c1 |  |  |
|  | 77 nM | CC(C)c1cc(C#N)cc2nc(-c3ccc(C(=O)NC[C@H]4CC[C@H](c5ccc(Cl)cc5)CC4)cc3)oc12 | > 30000 nM |  |
|  | 66 nM | CC(C)Oc1ccc(F)cc1-c1ccc(N2C[C@@H](CNC(=O)c3ccc(-c4nc5cc(C#N)cc(C(C)C)c5o4)cc3)OC2=O)nc1 | > 30000 nM | 24 mg/dL |
|  | 100 nM | CC(C)c1cc(C#N)cc2nc(-c3ccc(C(=O)NC[C@H]4CC[C@H](c5cccc(C(F)(F)F)c5)CC4)cc3)oc12 |  |  |
|  | 1040 nM | CC(C)c1cc(C#N)cc2nc(-c3ccc(C(=O)NC[C@H]4CC[C@@H](c5cc(C(F)(F)F)cc(C(F)(F)F)c5)CC4)cc3)oc12 | > 30000 nM |  |
| 6.2 | 955 nM | Cc1ccc(-c2ccc(N3CC(CNC(=O)c4ccc(-c5nc6cc(C#N)cc(C(C)C)c6o5)cc4)OC3=O)nc2)s1 (racemic) | 12700 nM |  |
|  | 134 nM | CC(C)c1cc(C#N)cc2nc(-c3ccc(C(=O)NC[C@H]4CC[C@@H](c5ccc(C(F)(F)F)cc5)CC4)cc3)oc12 | > 30000 nM |  |
| 7.2 |  | CC(C)Oc1ccc(F)cc1-c1ccc(N2CCC(CNC(=O)c3ccc(-c4nc5cc(C#N)cc(C(C)C)c5o4)cc3)CC2)nc1 |  | 24 mg/dL |
| 5.1 | 829 nM | CC(C)c1cc(C#N)cc2nc(-c3ccc(C(=O)NCC4CN(c5ccc(-c6ccccc6C#N)cn5)C(=O)O4)cc3)oc12 (racemic) | 1190 nM |  |
|  | 154 nM | CC(C)Oc1ccc(F)cc1-c1ccc(N2C[C@H](CNC(=O)c3ccc(-c4nc5cc(C#N)cc(C(C)C)c5o4)cc3)OC2=O)nc1 | > 30000 nM |  |
| 5.8 | 19200 nM | CC(C)c1cc(C#N)cc2nc(-c3ccc(C(=O)NCC4CN(c5ccc(Cl)cn5)C(=O)O4)cc3)oc12 (racemic) |  |  |
|  | 78 nM | CC(C)c1cc(C#N)cc2nc(-c3ccc(C(=O)NC[C@H]4CC[C@@H](c5cccc(C(F)(F)F)c5)CC4)cc3)oc12 |  |  |
| 6.4 | 67 nM | CC(C)c1cc(C#N)cc2nc(-c3ccc(C(=O)NCC4CN(c5ccc(-c6ccccc6OC(F)(F)F)cn5)C(=O)O4)cc3)oc12 (racemic) | > 30000 nM |  |
|  | 18 nM | CC(C)c1cc(C#N)cc2nc(-c3ccc(C(=O)NC[C@@]4(C)CN(c5ccc(-c6ccccc6OC(F)(F)F)cn5)C(=O)O4)cc3)oc12 | > 30000 nM | 27 mg/dL |
|  | 38 nM | CC(C)c1cc(C#N)cc2nc(-c3ccc(C(=O)NC[C@H]4CC[C@H](c5ccc(C(C)(C)C)cc5)CC4)cc3)oc12 | > 30000 nM | 18 mg/dL |
| 5.4 | 2340 nM | C=C(C)c1ccc(N2CC(CNC(=O)c3ccc(-c4nc5cc(C#N)cc(C(C)C)c5o4)cc3)OC2=O)nc1 (racemic) | > 30000 nM |  |
|  | 133 nM | Cc1cccc([C@H]2CC[C@H](CNC(=O)c3ccc(-c4nc5cc(C#N)cc(C(C)C)c5o4)cc3)CC2)c1 |  |  |
|  | 140 nM | CC(C)c1cc(C#N)cc2nc(-c3ccc(C(=O)NC[C@H]4CN(c5ccc(-c6ccccc6OC(F)(F)F)cn5)C(=O)O4)cc3)oc12 | 3580 nM |  |
|  | 37 nM | CC(C)c1cc(C#N)cc2nc(-c3ccc(C(=O)NC[C@H]4CC[C@@H](c5ccc(C(C)(C)C)cc5)CC4)cc3)oc12 | > 30000 nM | 17 mg/dL |
|  | 84 nM | CC(C)c1cc(C#N)cc2nc(-c3ccc(C(=O)NC[C@H]4CC[C@H](c5cc(C(F)(F)F)cc(C(F)(F)F)c5)CC4)cc3)oc12 | > 30000 nM |  |
